According to patent US20150197492A1, “NOVEL INDENO[1,2-c]QUINOLIN-11-ONE DERIVATIVES, PREPARATION METHOD AND APPLICATION THEREOF” (National Defense Medical Center, priority 2014, published 2015):

Experiments:
Solubility in DMSO = assay type: physicochemical; conditions: order SJ-2<SJ-24<SJ-3<SJ-11
Description: The solubility of the four compounds in DMSO is poor, SJ-2<SJ-24<SJ-3<SJ-11, and therefore it is estimated and this is the reason why the three compounds which have previously proven to be effective against PC-3 cell line by SRB assays are ineffective in this experiment.

60 cancer cell lines = experiment: NCI five-dose level screening test, second stage (GI50, TGI, LC50); assay type: cell-based; conditions: for Subpanel MID^b (average sensitivity of all cell line of a particular subpanel) / MID^a (average sensitivity of all cell line): GI50; for MID^a (average sensitivity of all cell line): all cell lines
Description: From the results, compounds SJ-3 (NSC 772864) and SJ-10 (NSC 772862) were selected by NCI for a five-dose level screening test and the mean growth percentage of the 60 cancer cell lines for the two compounds are 62.4 and −14.37, respectively. […] A summary of the NCI data provides information on the inhibition effect of various compound in different cancer cell lines (FIGS. 3 to 16 and Tables 3 to 8). […] Table 9 indicates the GI50, TGI and LC50 of the NCI data of TC-XCl, SJ-3 and SJ-10 NCI.

[1] = Non-Small Cell Lung Cancer subpanel

| Structure (SMILES) | solubility in DMSO (Solubility in DMSO) | Selectivity ratio (MID^a:MID^b) (60 cancer cell lines; Breast Cancer subpanel) | Subpanel MID^b (average sensitivity of all cell line of a particular subpanel) (60 cancer cell lines; Breast Cancer subpanel) [µM] | Selectivity ratio (MID^a:MID^b) (60 cancer cell lines; CNS Cancer subpanel) | Subpanel MID^b (average sensitivity of all cell line of a particular subpanel) (60 cancer cell lines; CNS Cancer subpanel) [µM] | Selectivity ratio (MID^a:MID^b) (60 cancer cell lines; Colon Cancer subpanel) | Subpanel MID^b (average sensitivity of all cell line of a particular subpanel) (60 cancer cell lines; Colon Cancer subpanel) [µM] | Selectivity ratio (MID^a:MID^b) (60 cancer cell lines; Leukemia subpanel) | Subpanel MID^b (average sensitivity of all cell line of a particular subpanel) (60 cancer cell lines; Leukemia subpanel) [µM] | Selectivity ratio (MID^a:MID^b) (60 cancer cell lines; Melanoma subpanel) | Subpanel MID^b (average sensitivity of all cell line of a particular subpanel) (60 cancer cell lines; Melanoma subpanel) [µM] | Selectivity ratio (MID^a:MID^b) (60 cancer cell lines; [1]) | Subpanel MID^b (average sensitivity of all cell line of a particular subpanel) (60 cancer cell lines; [1]) [µM] | Selectivity ratio (MID^a:MID^b) (60 cancer cell lines; Ovarian Cancer subpanel) | Subpanel MID^b (average sensitivity of all cell line of a particular subpanel) (60 cancer cell lines; Ovarian Cancer subpanel) [µM] | Selectivity ratio (MID^a:MID^b) (60 cancer cell lines; Prostate Cancer subpanel) | Subpanel MID^b (average sensitivity of all cell line of a particular subpanel) (60 cancer cell lines; Prostate Cancer subpanel) [µM] | Selectivity ratio (MID^a:MID^b) (60 cancer cell lines; Renal Cancer subpanel) | Subpanel MID^b (average sensitivity of all cell line of a particular subpanel) (60 cancer cell lines; Renal Cancer subpanel) [µM] | MID^a (average sensitivity of all cell line) (60 cancer cell lines) [µM] |
| --- | --- | --- | --- | --- | --- | --- | --- | --- | --- | --- | --- | --- | --- | --- | --- | --- | --- | --- | --- | --- |
| CN(C)c1nc2ccccc2c2c1-c1ccc(Cl)cc1C2=O [SJ-2, 9-Chloro-6-(dimethylamino)-11H-indeno[1,2-c]quinolin-11-one] | poor | – | – | – | – | – | – | – | – | – | – | – | – | – | – | – | – | – | – | – |
| CCN(CC)CCNc1nc2ccccc2c2c1-c1ccc(Cl)cc1C2=O [SJ-3, 6-(2-(Diethylamino)ethylamino)-9-chloro-11H-indeno[1,2-c]quinolin-11-one] | poor | 1.159 | 12.345 | 0.962 | 14.875 | 0.778 | 18.400 | 1.475 | 9.696 | 0.914 | 15.654 | 1.210 | 11.819 | 0.820 | 17.448 | 0.914 | 15.650 | 1.124 | 12.733 | 14.306 |
| O=C1c2cc(Cl)ccc2-c2c(N3CCNCC3)nc3ccccc3c21 [SJ-10, 9-Chloro-6-(piperazin-1-yl)-11H-indeno[1,2-c]quinolin-11-one] | – | 1.541 | 6.813 | 1.304 | 8.053 | 1.075 | 9.763 | 0.954 | 11.000 | 0.528 | 19.894 | 1.621 | 6.477 | 0.772 | 13.591 | 1.959 | 5.360 | 1.648 | 6.370 | 10.498 |
